Experimental data published in US8912121B2, “Herbicidal compositions comprising 4-amino-3-chloro-5-fluoro-6-(4-chloro-2-fluoro-3-methoxyphenyl)pyridine-2-carboxylic acid or a derivative thereof and certain PS II inhibitors” (Dow Agrosciences LLC, priority 2012, dated 2014).

Tested on: ECHCG (Echinochloa crusgalli, barnyardgrass)
Assay: In-water applied mixtures, transplanted paddy rice, greenhouse
Assay type: in vivo, Echinochloa crusgalli (L.) Beauv.
Details: 21 DAA
Experimental: Weed seeds or nutlets of the desired test plant species were planted in puddled soil (mud) prepared by mixing a shredded, non-sterilized mineral soil (50.5 percent silt, 25.5 percent clay, and 24 percent sand, with a pH of about 7.6 and an organic matter content of about 2.9 percent) and water at a 1:1 volumetric ratio. The prepared mud was dispensed in 365 mL aliquots into 16-ounce (oz.) non-perforated plastic pots with a surface area of 86.59 square centimeters (cm^2) leaving a headspace of 3 centimeters (cm) in each pot Mud was allowed to dry overnight prior to planting or transplanting. Rice seeds were planted in Sun Gro MetroMix® 306 planting mixture, which typically has a pH of 6.0 to 6.8 and an organic matter content of about 30 percent, in plastic plug trays. Seedlings at the second or third leaf stage of growth were transplanted into 840 mL of mud contained in 32-oz. non-perforated plastic pots with a surface area of 86.59 cm^2 4 days prior to herbicide application. The paddy was created by filling the headspace of the pots with 2.5 to 3 cm of water. When required to ensure good germination and healthy plants, a fungicide treatment and/or other chemical or physical treatment was applied. The plants were grown for 4-22 days in a greenhouse with an approximate 14 h photoperiod which was maintained at about 29° C during the day and 26° C. during the night. Nutrients were added as Osmocote® (19:6:12, N:P:K+ minor nutrients) at 2 g per 16-oz. pot and 4 g per 32-oz. pot. Water was added on a regular basis to maintain the paddy flood, and supplemental lighting was provided with overhead metal halide 1000-Watt lamps as necessary. The plants were employed for testing when they reached the first through fourth true leaf stage. […]
Treatment requirements for each compound or herbicidal component were calculated based upon the rates being tested, the concentration of active ingredient or acid equivalent in the formulation, an application volume of 2 mL per component per pot, and an application area of 86.59 cm^2 per pot.
For formulated compounds, a measured amount was placed in an individual 100 or 200 mL glass vial and was dissolved in a volume of 1.25% (v/v) Agri-Dex® crop oil concentrate to obtain application solutions. […]
The treated plants and control plants were placed in a greenhouse as described above and water was added as needed to maintain a paddy flood. After approximately 3 weeks the condition of the test plants as compared with that of the untreated plants was determined visually and scored on a scale of 0 to 100 percent where 0 corresponds to no injury or growth inhibition and 100 corresponds to complete kill. […]

Structure (SMILES): COc1c(Cl)ccc(-c2nc(C(=O)O)c(Cl)c(N)c2F)c1F [Compound A Acid, 4-amino-3-chloro-6-(4-chloro-2-fluoro-3-methoxyphenyl)-5-fluoropyridine-2-carboxylic acid]
- Visual Weed Control (%) Obs (8.75 g ae/ha): 0%
- Visual Weed Control (%) Obs (17.5 g ae/ha): 0%
